Assay results reported in patent publication US9988400B2 (Genentech, Inc., priority 2013, dated 2018).

Biological target: T1, HEK cells stably transfected with tetracycline inducible hNR1 and hNR2A (Homo sapiens, UniProt Q05586+Q12879)
T1 construct: expressed in transfected cells; host or cells: HEK cells, stably transfected, tetracycline/doxycycline inducible
Experiment: Assay 1: Cell-Based Assay, cytosolic calcium response to positive allosteric modulators (with 30 μM glycine and 300 nM L-glutamate, EC30)
Conditions: for EC50: cytosolic calcium response, with 30 μM glycine and 300 nM L-glutamate (EC30), — = no plateau was reached; for Max %: responses scaled relative to 100 μM L-glutamate maximal response (100%) and 0 μM L-glutamate (0%)
How it was run: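 Cells induced 24 h with 7.5 μg mL^−1 doxycycline plus 500 μM (+)-ketamine, loaded 60 min at 37 °C with calcium dye in Mg-free HBSS (1.8 mM Ca, probenecid, 10 μM (+)-ketamine, pH 7.15). Peak RFU over 5 min after compound addition, scaled to 100 μM L-glutamate (100%) and 0 μM (0%); four-parameter Hill fit for EC50, max % if no plateau.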

T1 sequence (Q12879 23-1464, other chains not shown): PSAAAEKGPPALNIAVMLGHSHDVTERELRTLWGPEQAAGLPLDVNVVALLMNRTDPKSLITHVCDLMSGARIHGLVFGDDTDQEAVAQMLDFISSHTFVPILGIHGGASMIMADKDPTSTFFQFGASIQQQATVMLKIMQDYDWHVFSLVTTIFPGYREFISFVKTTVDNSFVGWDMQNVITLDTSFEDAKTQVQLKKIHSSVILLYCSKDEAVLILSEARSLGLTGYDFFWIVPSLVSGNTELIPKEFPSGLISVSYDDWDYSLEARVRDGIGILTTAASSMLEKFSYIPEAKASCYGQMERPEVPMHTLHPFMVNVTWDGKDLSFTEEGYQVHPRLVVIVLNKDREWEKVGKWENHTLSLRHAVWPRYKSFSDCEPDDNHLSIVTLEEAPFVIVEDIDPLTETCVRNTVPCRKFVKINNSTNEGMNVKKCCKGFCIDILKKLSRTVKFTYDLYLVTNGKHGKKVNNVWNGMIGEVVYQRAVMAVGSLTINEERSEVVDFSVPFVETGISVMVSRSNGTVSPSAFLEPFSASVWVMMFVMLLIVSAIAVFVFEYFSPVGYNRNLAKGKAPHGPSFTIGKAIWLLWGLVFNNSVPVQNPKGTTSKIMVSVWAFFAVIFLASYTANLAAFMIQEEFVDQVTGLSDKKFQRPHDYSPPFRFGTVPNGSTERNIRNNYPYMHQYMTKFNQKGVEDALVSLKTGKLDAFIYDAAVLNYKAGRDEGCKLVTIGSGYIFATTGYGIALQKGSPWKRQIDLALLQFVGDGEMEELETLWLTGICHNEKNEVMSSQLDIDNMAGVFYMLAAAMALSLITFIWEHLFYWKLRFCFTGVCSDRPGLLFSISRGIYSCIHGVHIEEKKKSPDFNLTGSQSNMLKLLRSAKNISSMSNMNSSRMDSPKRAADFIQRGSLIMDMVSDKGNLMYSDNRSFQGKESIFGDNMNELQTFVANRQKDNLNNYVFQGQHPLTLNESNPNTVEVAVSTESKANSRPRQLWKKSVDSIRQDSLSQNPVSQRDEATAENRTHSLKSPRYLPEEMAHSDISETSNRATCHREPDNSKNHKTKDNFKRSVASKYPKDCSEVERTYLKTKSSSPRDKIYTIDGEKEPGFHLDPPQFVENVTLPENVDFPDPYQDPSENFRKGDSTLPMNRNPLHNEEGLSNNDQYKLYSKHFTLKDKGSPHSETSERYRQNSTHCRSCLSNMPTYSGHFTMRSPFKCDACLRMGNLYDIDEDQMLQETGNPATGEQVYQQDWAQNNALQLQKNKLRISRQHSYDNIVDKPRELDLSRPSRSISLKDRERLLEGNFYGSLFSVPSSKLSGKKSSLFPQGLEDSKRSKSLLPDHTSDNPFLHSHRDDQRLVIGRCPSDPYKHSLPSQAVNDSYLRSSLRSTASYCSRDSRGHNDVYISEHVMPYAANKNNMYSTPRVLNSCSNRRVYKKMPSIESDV

| SMILES | EC50 (Table 3) [µM] | EC50 (Table 2) [µM] | Max % (Table 2) [%] |
| --- | --- | --- | --- |
| Cc1sc2nc(Cn3nc(Cl)cc3C(F)(F)F)cc(=O)n2c1-c1cncc(Cl)c1 [compound 150, 3-(5-chloro-3-pyridyl)-7-[[3-chloro-5-(trifluoromethyl)pyrazol-1-yl]methyl]-2-methyl-thiazolo[3,2-a]pyrimidin-5-one] | 17.3 | – | – |
| CNC(=O)Cc1c(C)sc2nc(Cc3cccc(C(F)(F)F)c3F)cc(=O)n12 [compound 19, 2-[7-[[2-fluoro-3-(trifluoromethyl)phenyl]methyl]-2-methyl-5-oxo-thiazolo[3,2-a]pyrimidin-3-yl]-N-methyl-acetamide] | 5.45 | – | – |
| O=c1cc(Cn2nc(C(F)(F)F)cc2Cl)nc2scc(Br)n12 [compound 225, 3-bromo-7-[[5-chloro-3-(trifluoromethyl)pyrazol-1-yl]methyl]thiazolo[3,2-a]pyrimidin-5-one] | 8.69 | – | – |
| O=c1cc(Cn2nc(C(F)(F)F)cc2Cl)nc2scc(C(F)(F)F)n12 [compound 239, 7-[[5-chloro-3-(trifluoromethyl)pyrazol-1-yl]methyl]-3-(trifluoromethyl)thiazolo[3,2-a]pyrimidin-5-one] | 14.2 | – | – |
| Cc1sc2nc(Cn3nc(Cl)cc3C(F)(F)F)cc(=O)n2c1-c1ncco1 [compound 159, 7-[[3-chloro-5-(trifluoromethyl)pyrazol-1-yl]methyl]-2-methyl-3-oxazol-2-yl-thiazolo[3,2-a]pyrimidin-5-one] | 7.59 | – | – |
| CCN(Cc1cc(=O)n2c(-c3ccoc3)c(C)sc2n1)c1ccc(F)cc1 [Example 5.44, 7-((ethyl(4-fluorophenyl)amino)methyl)-3-(furan-3-yl)-2-methyl-5H-thiazolo[3,2-a]pyrimidin-5-one] | – | 1.1 | 158 |
| CCN(Cc1cc(=O)n2c(-c3cccnc3F)c(C)sc2n1)c1ccc(F)cc1 [Example 5.25, 7-[(N-ethyl-4-fluoro-anilino)methyl]-3-(2-fluoro-3-pyridyl)-2-methyl-thiazolo[3,2-a]pyrimidin-5-one] | – | 0.7 | 141 |
| CNC(=O)c1csc2nc(COc3ccc(F)cc3)cc(=O)n12 [Example 3.5, 7-((4-fluorophenoxy)methyl)-N-methyl-5-oxo-5H-thiazolo[3,2-a]pyrimidine-3-carboxamide] | – | – | 65.6 |
| CCNC(=O)c1c(C)sc2nc(Cc3cccc(C(F)F)c3F)c(F)c(=O)n12 [compound 31, 7-[[3-(difluoromethyl)-2-fluoro-phenyl]methyl]-N-ethyl-6-fluoro-2-methyl-5-oxo-thiazolo[3,2-a]pyrimidine-3-carboxamide] | 4.17 | – | – |
| COc1cc(C(F)(F)F)n(Cc2cc(=O)n3c(C4CC4C#N)c(C)sc3n2)n1 (stereo not drawn) [compound 210, 2-[7-[[3-methoxy-5-(trifluoromethyl)pyrazol-1-yl]methyl]-2-methyl-5-oxo-thiazolo[3,2-a]pyrimidin-3-yl]cyclopropanecarbonitrile] | 8.92 | – | – |
| CCN(Cc1cc(=O)n2c(-c3cnccn3)c(C)sc2n1)c1ccc(F)cc1 [Example 5.27, 7-[(N-ethyl-4-fluoro-anilino)methyl]-2-methyl-3-pyrazin-2-yl-thiazolo[3,2-a]pyrimidin-5-one] | – | 1.1 | 139 |
| Cc1sc2nc(Cn3nc(C(F)(F)F)cc3Cl)cc(=O)n2c1C(C)CO (stereo not drawn) [compound 222, 7-[[5-Chloro-3-(trifluoromethyl)pyrazol-1-yl]methyl]-3-(2-hydroxy-1-methyl-ethyl)-2-methyl-thiazolo[3,2-a]pyrimidin-5-one] | 2.92 | – | – |
| Cc1sc2nc(COc3ccc(F)cc3)cc(=O)n2c1[C@@H]1C[C@H]1C#N (single isomer, unassigned) [Example 4.22, trans-2-[7-(4-Fluorophenoxymethyl)-2-methyl-5-oxo-5H-[1,3]thiazolo[3,2-a]pyrimidin-3-yl]cyclopropane-1-carbonitrile] | – | – | 84.2 |
| CCNC(=O)c1c(OC)sc2nc(Cn3nc(Cl)cc3C(F)(F)F)cc(=O)n12 [compound 127, 7-[[3-chloro-5-(trifluoromethyl)pyrazol-1-yl]methyl]-N-ethyl-2-methoxy-5-oxo-thiazolo[3,2-a]pyrimidine-3-carboxamide] | 4.87 | – | – |
| O=c1cc(Cn2nc(C(F)(F)F)cc2Cl)nc2sc(C(F)(F)F)c(N3CCC3)n12 [compound 206, 3-(Azetidin-1-yl)-7-[[5-chloro-3-(trifluoromethyl)pyrazol-1-yl]methyl]-2-(trifluoromethyl)thiazolo[3,2-a]pyrimidin-5-one] | 7.19 | – | – |
| Cc1sc2nc(Cn3nc(Cl)cc3C(F)(F)F)cc(=O)n2c1Br [compound 216, 3-bromo-7-[[3-chloro-5-(trifluoromethyl)pyrazol-1-yl]methyl]-2-methyl-thiazolo[3,2-a]pyrimidin-5-one] | 0.0594 | – | – |
| CCNC(=O)c1c(C(F)(F)F)sc2nc(Cn3nc(Cl)cc3C(F)(F)F)cc(=O)n12 [compound 44, 7-[[3-chloro-5-(trifluoromethyl)pyrazol-1-yl]methyl]-N-ethyl-5-oxo-2-(trifluoromethyl)thiazolo[3,2-a]pyrimidine-3-carboxamide] | 0.685 | – | – |
| CCN(Cc1cc(=O)n2c(-c3ccnc(N)c3)c(C)sc2n1)c1ccc(F)cc1 [Example 5.57, 3-(2-amino-4-pyridyl)-7-[(N-ethyl-4-fluoro-anilino)methyl]-2-methyl-thiazolo[3,2-a]pyrimidin-5-one] | – | 6.4 | 120 |
| Cc1sc2nc(CN(CC(F)F)c3ccc(F)cc3)cc(=O)n2c1-c1cncnc1 [Example 5.6, 7-(((2,2-difluoroethyl)(4-fluorophenyl)amino)methyl)-2-methyl-3-(pyrimidin-5-yl)-5H-thiazolo[3,2-a] pyrimidin-5-one] | – | 0.766 | 164 |
| CCNC(=O)c1c(C)sc2nc(Cc3cc(F)c(F)cc3CCF)cc(=O)n12 [compound 17, 7-[[4,5-difluoro-2-(2-fluoroethyl)phenyl]methyl]-N-ethyl-2-methyl-5-oxo-thiazolo[3,2-a]pyrimidine-3-carboxamide] | 7.04 | – | – |
| CCNC(=O)c1c(C)sc2nc(Cc3cccc(C4(O)CC4)c3F)cc(=O)n12 [compound 33, N-ethyl-7-[[2-fluoro-3-(1-hydroxycyclopropyl)phenyl]methyl]-2-methyl-5-oxo-thiazolo[3,2-a]pyrimidine-3-carboxamide] | 6.43 | – | – |

Next, values leading:

| EC50 (Table 3) [µM] | EC50 (Table 2) [µM] | Max % (Table 2) [%] | SMILES |
| --- | --- | --- | --- |
| – | 22 | 116 | Cc1sc2nc(Cn3nc(C(F)(F)F)cc3C(F)(F)F)cc(=O)n2c1-c1cncnc1 [Example 15.30, 7-((3,5-bis(trifluoromethyl)-1H-pyrazol-1-yl)methyl)-2-methyl-3-(pyrimidin-5-yl)-5H-thiazolo[3,2-a]pyrimidin-5-one] |
| – | – | 57.8 | Cc1sc2nc(Cn3nccc3C(F)(F)F)cc(=O)n2c1-c1cncnc1 [Example 15.31, 2-methyl-3-(pyrimidin-5-yl)-7-((5-(trifluoromethyl)-1H-pyrazol-1-yl)methyl)-5H-thiazolo[3,2-a]pyrimidin-5-one] |
| – | 13 | 137 | CCN(Cc1cc(=O)n2c3c(sc2n1)CCC3CC(N)=O)c1ccc(F)cc1 (stereo not drawn) [Example 8.16, 2-[6-[(N-ethyl-4-fluoro-anilino)methyl]-8-oxo-2,3-dihydro-1H-cyclopenta[3,4]thiazolo[1,4-a]pyrimidin-1-yl]acetamide] |
| – | – | 100 | CCNC(=O)c1c(C)sc2nc(Cc3cccc(C(F)(F)F)c3)cc(=O)n12 [Example 21.7, N-ethyl-2-methyl-5-oxo-7-(3-(trifluoromethyl)benzyl)-5H-thiazolo[3,2-a]pyrimidine-3-carboxamide] |
| – | 2.7 | 147 | CCOCc1c(C)sc2nc(CN(CC)c3ccc(F)cc3)cc(=O)n12 [Example 10.16, 3-(ethoxymethyl)-7-[(N-ethyl-4-fluoro-anilino)methyl]-2-methyl-thiazolo[3,2-a]pyrimidin-5-one] |
| – | 0.826 | 158 | Cc1sc2nc(Cn3nc(C(F)(F)F)cc3CCO)cc(=O)n2c1[C@@H]1C[C@H]1CO (relative stereo) [Example 15.7, 7-[[5-(2-hydroxyethyl)-3-(trifluoromethyl)-1H-pyrazol-1-yl]methyl]-3-[trans-2-(hydroxymethyl)cyclopropyl]-2-methyl-5H-[1,3]thiazolo[3,2-a]pyrimidin-5-one] |
| – | – | 96.9 | CCNC(=O)c1c(C)sc2nc(C(C)c3cccc(C(F)(F)F)c3F)cc(=O)n12 (stereo not drawn) [Example 22.1, N-ethyl-7-(1-(2-fluoro-3-(trifluoromethyl)phenyl)ethyl)-2-methyl-5-oxo-5H-thiazolo[3,2-a]pyrimidine-3-carboxamide] |
| – | 0.569 | 164 | CCN(Cc1cc(=O)n2c3c(sc2n1)CCC3CO)c1ccc(F)cc1 (single isomer, unassigned) [Example 8.4, 6-[(N-ethyl-4-fluoro-anilino)methyl]-1-(hydroxymethyl)-2,3-dihydro-1H-cyclopenta[3,4]thiazolo[1,4-a]pyrimidin-8-one] |
| – | – | 63.5 | CCN(Cc1cc(=O)n2c(CN3CCC3)c(C)sc2n1)c1ccc(F)cc1 [Example 10.8, 3-(azetidin-1-ylmethyl)-7-[(N-ethyl-4-fluoro-anilino)methyl]-2-methyl-thiazolo[3,2-a]pyrimidin-5-one] |
| – | – | 79.9 | CCNC(=O)c1c(C)sc2nc(Cc3cc(F)ccc3C(F)(F)F)cc(=O)n12 [Example 21.34, N-ethyl-7-(5-fluoro-2-(trifluoromethyl)benzyl)-2-methyl-5-oxo-5H-thiazolo[3,2-a]pyrimidine-3-carboxamide] |
| – | – | 94.8 | Cc1sc2nc(Cn3nc(C(F)(F)F)cc3C)cc(=O)n2c1-c1cncnc1 [Example 15.32, 2-methyl-7-((5-methyl-3-(trifluoromethyl)-1H-pyrazol-1-yl)methyl)-3-(pyrimidin-5-yl)-5H-thiazolo [3,2-a]pyrimidin-5-one] |
